{
  "source": "patent US9637469B2",
  "about": "“Pyridine derivative” (Teijin Pharma Limited, priority 2012, dated 2017)",
  "data": [
    {"target": "T1, human URAT1 (Homo sapiens, UniProt Q96S37)", "T1 construct": "Full-length cDNA of human URAT1 (hURAT1)", "T1 sequence (Q96S37 1-553)": "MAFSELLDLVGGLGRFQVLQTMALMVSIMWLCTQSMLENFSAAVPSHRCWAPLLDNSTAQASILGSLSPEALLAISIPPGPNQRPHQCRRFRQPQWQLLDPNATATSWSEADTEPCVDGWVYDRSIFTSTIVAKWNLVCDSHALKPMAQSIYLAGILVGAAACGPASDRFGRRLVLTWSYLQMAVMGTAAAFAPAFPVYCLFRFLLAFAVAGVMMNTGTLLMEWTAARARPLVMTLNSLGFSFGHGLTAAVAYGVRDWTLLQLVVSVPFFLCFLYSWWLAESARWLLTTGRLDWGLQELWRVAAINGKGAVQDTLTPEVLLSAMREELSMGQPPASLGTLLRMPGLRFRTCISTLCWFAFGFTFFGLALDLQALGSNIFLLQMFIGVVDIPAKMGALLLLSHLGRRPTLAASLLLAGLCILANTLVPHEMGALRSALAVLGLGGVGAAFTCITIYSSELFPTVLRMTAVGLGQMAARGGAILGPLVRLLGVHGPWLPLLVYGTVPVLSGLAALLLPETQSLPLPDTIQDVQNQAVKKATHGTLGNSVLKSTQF", "experiment": "Test for inhibition of uric acid transport using human URAT1-expressing cells;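 further: three stars up to 0.2 µM two stars 0.2-2 µM one star 2-20 µM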", "format": "cell-based", "details": "HEK 293 cells expressing human URAT1; 14C-labeled uric acid 25 μM; uptake 37° C. for 5 min", "how_it_was_run": "(§1)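 HEK293 cells stably transfected with full-length hURAT1, preincubated 10 min at 37 °C in HBSS with NaCl replaced by Na gluconate. Uptake of 25 μM ¹⁴C-uric acid with compound ran 5 min at 37 °C, then scintillation counting. IC50 derived from % of DMSO-control URAT1-specific uptake.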", "values": [
      {"smiles": "COc1ncccc1-c1nc(C)c(C(=O)O)n1Cc1cc(Cl)ccc1Cl", "note": "[Compound A162, 1-(2,5-dichlorobenzyl)-2-(2-methoxypyridin-3-yl)-4-methyl-1H-imidazole-5-carboxylic acid]", "Inhibitory Activity (IC50 of uric acid transport inhibition)": "* *"},
      {"smiles": "Cc1nc(-c2ccc(Cl)nc2)n(Cc2cc(Cl)ccc2Cl)c1C(=O)O", "note": "[Compound A164, 2-(6-chloropyridin-3-yl)-1-(2,5-dichlorobenzyl)-4-methyl-1H-imidazole-5-carboxylic acid]", "Inhibitory Activity (IC50 of uric acid transport inhibition)": "* *"},
      {"smiles": "Cc1nc(-c2cncc(N3CCCC3)c2)n(Cc2cc(Cl)ccc2Cl)c1C(=O)O", "note": "[Compound A166, 1-(2,5-dichlorobenzyl)-4-methyl-2-(5-(pyrrolidin-1-yl)pyridin-3-yl)-1H-imidazole-5-carboxylic acid]", "Inhibitory Activity (IC50 of uric acid transport inhibition)": "* * *"},
      {"smiles": "Cc1nc(-c2cncc([N+](=O)[O-])c2)n(Cc2cc(Cl)ccc2Cl)c1C(=O)O", "note": "[Compound A167, 1-(2,5-dichlorobenzyl)-4-methyl-2-(5-nitropyridin-3-yl)-1H-imidazole-5-carboxylic acid]", "Inhibitory Activity (IC50 of uric acid transport inhibition)": "* * *"},
      {"smiles": "Cc1nc(-c2cncc(C3CC3)c2)n(Cc2cc(Cl)ccc2Cl)c1C(=O)O", "note": "[Compound A168, 2-(5-cyclopropylpyridin-3-yl)-1-(2,5-dichlorobenzyl)-4-methyl-1H-imidazole-5-carboxylic acid]", "Inhibitory Activity (IC50 of uric acid transport inhibition)": "* * *"},
      {"smiles": "Cc1nc(-c2cncc(F)c2)n(Cc2cc(C(F)(F)F)ccc2C(F)(F)F)c1C(=O)O", "note": "[Compound A170, 1-(2,5-bis(trifluoromethyl)benzyl)-2-(5-fluoropyridin-3-yl)-4-methyl-1H-imidazole-5-carboxylic acid]", "Inhibitory Activity (IC50 of uric acid transport inhibition)": "* *"},
      {"smiles": "O=C(O)c1cnc(-c2cncc(F)c2)n1Cc1cc(Cl)ccc1Cl", "note": "[Compound A171, 1-(2,5-dichlorobenzyl)-2-(5-fluoropyridin-3-yl)-1H-imidazole-5-carboxylic acid]", "Inhibitory Activity (IC50 of uric acid transport inhibition)": "* * *"},
      {"smiles": "Cc1nc(-c2cncc(O)c2)n(Cc2cc(Cl)ccc2Cl)c1C(=O)O", "note": "[Compound A172, 1-(2,5-dichlorobenzyl)-2-(5-hydroxypyridin-3-yl)-4-methyl-1H-imidazole-5-carboxylic acid]", "Inhibitory Activity (IC50 of uric acid transport inhibition)": "* *"},
      {"smiles": "Cc1nc(-c2cncc(Cl)c2)n(Cc2cc(C(F)(F)F)ccc2C(F)(F)F)c1C(=O)O", "note": "[Compound A173, 1-(2,5-bis(trifluoromethyl)benzyl)-2-(5-chloropyridin-3-yl)-4-methyl-1H-imidazole-5-carboxylic acid]", "Inhibitory Activity (IC50 of uric acid transport inhibition)": "* * *"},
      {"smiles": "CCOc1cncc(-c2nc(C)c(C(=O)O)n2Cc2cc(Cl)ccc2Cl)c1", "note": "[Compound A174, 1-(2,5-dichlorobenzyl)-2-(5-ethoxypyridin-3-yl)-4-methyl-1H-imidazole-5-carboxylic acid]", "Inhibitory Activity (IC50 of uric acid transport inhibition)": "* * *"},
      {"smiles": "Cc1nc(-c2cncc(OC(C)C)c2)n(Cc2cc(Cl)ccc2Cl)c1C(=O)O", "note": "[Compound A175, 1-(2,5-dichlorobenzyl)-2-(5-isopropoxypyridin-3-yl)-4-methyl-1H-imidazole-5-carboxylic acid]", "Inhibitory Activity (IC50 of uric acid transport inhibition)": "* *"},
      {"smiles": "Cc1nc(-c2cncc(-c3ccccc3)c2)n(Cc2cc(Cl)ccc2Cl)c1C(=O)O", "note": "[Compound A176, 1-(2,5-dichlorobenzyl)-4-methyl-2-(5-phenylpyridin-3-yl)-1H-imidazole-5-carboxylic acid]", "Inhibitory Activity (IC50 of uric acid transport inhibition)": "* * *"},
      {"smiles": "Cc1nc(-c2cncc(Br)c2)n(Cc2cc(Cl)ccc2Cl)c1C(=O)O", "note": "[Compound A177, 2-(5-bromopyridin-3-yl)-1-(2,5-dichlorobenzyl)-4-methyl-1H-imidazole-5-carboxylic acid]", "Inhibitory Activity (IC50 of uric acid transport inhibition)": "* * *"},
      {"smiles": "Cc1ccc(C)c(Cn2c(-c3cncc(F)c3)nc(C)c2C(=O)O)c1", "note": "[Compound A178, 1-(2,5-dimethylbenzyl)-2-(5-fluoropyridin-3-yl)-4-methyl-1H-imidazole-5-carboxylic acid]", "Inhibitory Activity (IC50 of uric acid transport inhibition)": "* *"},
      {"smiles": "Cc1ccc(C)c(Cn2c(-c3cncc(Cl)c3)nc(C)c2C(=O)O)c1", "note": "[Compound A179, 2-(5-chloropyridin-3-yl)-1-(2,5-dimethylbenzyl)-4-methyl-1H-imidazole-5-carboxylic acid]", "Inhibitory Activity (IC50 of uric acid transport inhibition)": "* * *"},
      {"smiles": "Cc1cncc(-c2nc(C)c(C(=O)O)n2Cc2cc(C)ccc2C)c1", "note": "[Compound A180, 1-(2,5-dimethylbenzyl)-4-methyl-2-(5-methylpyridin-3-yl)-1H-imidazole-5-carboxylic acid]", "Inhibitory Activity (IC50 of uric acid transport inhibition)": "* * *"},
      {"smiles": "CCc1cncc(-c2nc(C)c(C(=O)O)n2Cc2cc(Cl)ccc2Cl)c1", "note": "[Compound A181, 1-(2,5-dichlorobenzyl)-2-(5-ethylpyridin-3-yl)-4-methyl-1H-imidazole-5-carboxylic acid]", "Inhibitory Activity (IC50 of uric acid transport inhibition)": "* * *"},
      {"smiles": "CSc1cncc(-c2nc(C)c(C(=O)O)n2Cc2cc(Cl)ccc2Cl)c1", "note": "[Compound A182, 1-(2,5-dichlorobenzyl)-4-methyl-2-(5-(methylthio)pyridin-3-yl)-1H-imidazole-5-carboxylic acid]", "Inhibitory Activity (IC50 of uric acid transport inhibition)": "* * *"},
      {"smiles": "CC(=O)c1cncc(-c2nc(C)c(C(=O)O)n2Cc2cc(Cl)ccc2Cl)c1", "note": "[Compound A183, 2-(5-acetylpyridin-3-yl)-1-(2,5-dichlorobenzyl)-4-methyl-1H-imidazole-5-carboxylic acid]", "Inhibitory Activity (IC50 of uric acid transport inhibition)": "* * *"},
      {"smiles": "CCCOc1cncc(-c2nc(C)c(C(=O)O)n2Cc2cc(Cl)ccc2Cl)c1", "note": "[Compound A185, 1-(2,5-dichlorobenzyl)-4-methyl-2-(5-propoxypyridin-3-yl)-1H-imidazole-5-carboxylic acid]", "Inhibitory Activity (IC50 of uric acid transport inhibition)": "* * *"},
      {"smiles": "Cc1nc(-c2cncc(OCC(C)C)c2)n(Cc2cc(Cl)ccc2Cl)c1C(=O)O", "note": "[Compound A188, 1-(2,5-dichlorobenzyl)-2-(5-isobutoxypyridin-3-yl)-4-methyl-1H-imidazole-5-carboxylic acid]", "Inhibitory Activity (IC50 of uric acid transport inhibition)": "* * *"},
      {"smiles": "Cc1nc(-c2cncc(OCC3CCCCC3)c2)n(Cc2cc(Cl)ccc2Cl)c1C(=O)O", "note": "[Compound A189, 2-(5-(cyclohexylmethoxy)pyridin-3-yl)-1-(2,5-dichlorobenzyl)-4-methyl-1H-imidazole-5-carboxylic acid]", "Inhibitory Activity (IC50 of uric acid transport inhibition)": "* *"},
      {"smiles": "Cc1nc(-c2cncc(OCc3ccccc3)c2)n(Cc2cc(Cl)ccc2Cl)c1C(=O)O", "note": "[Compound A190, 2-(5-(benzyloxy)pyridin-3-yl)-1-(2,5-dichlorobenzyl)-4-methyl-1H-imidazole-5-carboxylic acid]", "Inhibitory Activity (IC50 of uric acid transport inhibition)": "* *"},
      {"smiles": "O=C(O)c1c(CO)nc(-c2cncc(Cl)c2)n1Cc1cc(Cl)ccc1Cl", "note": "[Compound A191, 2-(5-chloropyridin-3-yl)-1-(2,5-dichlorobenzyl)-4-(hydroxymethyl)-1H-imidazole-5-carboxylic acid]", "Inhibitory Activity (IC50 of uric acid transport inhibition)": "* * *"},
      {"smiles": "CN(C)Cc1nc(-c2cncc(Cl)c2)n(Cc2cc(Cl)ccc2Cl)c1C(=O)O", "note": "[Compound A192, 2-(5-chloropyridin-3-yl)-1-(2,5-dichlorobenzyl)-4-((dimethylamino)methyl)-1H-imidazole-5-carboxylic acid]", "Inhibitory Activity (IC50 of uric acid transport inhibition)": "* *"},
      {"smiles": "CCN(CC)Cc1nc(-c2cncc(Cl)c2)n(Cc2cc(Cl)ccc2Cl)c1C(=O)O", "note": "[Compound A193, 2-(5-chloropyridin-3-yl)-1-(2,5-dichlorobenzyl)-4-((diethylamino)methyl)-1H-imidazole-5-carboxylic acid]", "Inhibitory Activity (IC50 of uric acid transport inhibition)": "* * *"},
      {"smiles": "O=C(O)c1c(CN2CCCC2)nc(-c2cncc(Cl)c2)n1Cc1cc(Cl)ccc1Cl", "note": "[Compound A194, 2-(5-chloropyridin-3-yl)-1-(2,5-dichlorobenzyl)-4-(pyrrolidin-1-ylmethyl)-1H-imidazole-5-carboxylic acid]", "Inhibitory Activity (IC50 of uric acid transport inhibition)": "* * *"},
      {"smiles": "O=C(O)c1c(CN2CCCCC2)nc(-c2cncc(Cl)c2)n1Cc1cc(Cl)ccc1Cl", "note": "[Compound A195, 2-(5-chloropyridin-3-yl)-1-(2,5-dichlorobenzyl)-4-(piperidin-1-ylmethyl)-1H-imidazole-5-carboxylic acid]", "Inhibitory Activity (IC50 of uric acid transport inhibition)": "* * *"}
    ]},
    {"target": "T1, human URAT1", "experiment": "Test for inhibition of uric acid transport using human URAT1-expressing cells", "format": "cell-based", "details": "HEK 293 cells expressing human URAT1; 14C-labeled uric acid 25 μM; uptake 37° C. for 5 min; read-out: Inhibitory Activity (IC50 of uric acid transport inhibition)", "how_it_was_run": "as §1", "units": {"IC50": "µM"}, "values": [
      {"smiles": "Cc1nc(-c2ccc(N(C)C)nc2)n(Cc2cc(Cl)ccc2Cl)c1C(=O)O", "note": "[Compound A163]", "IC50": "2 to 20"},
      {"smiles": "Cc1nc(-c2cncc([S+](C)(=O)[O-])c2)n(Cc2cc(Cl)ccc2Cl)c1C(=O)O", "note": "[Compound A165]", "IC50": "2 to 20"},
      {"smiles": "COc1cccc(F)c1Oc1cncc(-c2nc(C)c(C(=O)O)n2Cc2cc(Cl)ccc2Cl)c1", "note": "[Compound A184]", "IC50": "2 to 20"},
      {"smiles": "Cc1nc(-c2cncc(OCCO)c2)n(Cc2cc(Cl)ccc2Cl)c1C(=O)O", "note": "[Compound A186]", "IC50": "2 to 20"},
      {"smiles": "Cc1nc(-c2cncc(OCCCO)c2)n(Cc2cc(Cl)ccc2Cl)c1C(=O)O", "note": "[Compound A187]", "IC50": "2 to 20"}
    ]}
  ]
}
